Target: T1, farnesyltransferase (Rattus norvegicus, UniProt Q02293+Q04631)
T1 construct: The enzyme can be purified according to Cell, 62: 81-88 (1990), utilizing steps one, two, and three; from tissue; host or cells: rat brain
Experiment: Inhibition of farnesyltransferase (3H-farnesyldiphosphate / H-Ras filter assay)
Type: biochemical
Settings: 37° C., 30 minutes; for inhibition at 0.1 µM: test compound 10^−7M
Description: The ability of the compounds of the present invention to inhibit farnesyltransferase can be measured according to the method described in J. Biol. Chem., 266: 14603 (1991) or J. Biol. Chem., 270:660-664 (1995). Procedures for determination of the inhibition of farnesylation of the oncogene protein Ras are described in J. Biol. Chem., 266:15575-15578 (1991) and U.S. Pat. No. 5,245,061. Inhibition of rat brain farnesyltransferase can also be measured in vitro using an Amersham Life Science commercial scintillation proximity assay kit and substituting a biotin-K Ras B fragment (0.1 μM final concentration) for the biotin-lamin substrate provided by Amersham. The enzyme can be purified according to Cell, 62: 81-88 (1990), utilizing steps one, two, and three. […] The percent inhibition of the farnesylation caused by the compounds of the present invention (at 10^−6 M) compared to an uninhibited control sample can be evaluated in the same Amersham test system.
The mixture was brought to 37° C., treated with enzyme, incubated for 30 minutes, treated with 1 M HCl/ethanol (1 mL) to stop the reaction, stirred for 15 minutes at room temperature, diluted with ethanol (2 mL), filtered through a 2.5 cm glass microfiber filter (Whatman) with ethanol rinses (4×2 mL). The glass filter was transferred to a scintillation vial and treated with scintillation fluid (5 mL). The radioisotope retained on the glass fiber filter was counted and reflected the activity of the enzyme.

T1 sequence (Q02293 whole entry, one chain of several): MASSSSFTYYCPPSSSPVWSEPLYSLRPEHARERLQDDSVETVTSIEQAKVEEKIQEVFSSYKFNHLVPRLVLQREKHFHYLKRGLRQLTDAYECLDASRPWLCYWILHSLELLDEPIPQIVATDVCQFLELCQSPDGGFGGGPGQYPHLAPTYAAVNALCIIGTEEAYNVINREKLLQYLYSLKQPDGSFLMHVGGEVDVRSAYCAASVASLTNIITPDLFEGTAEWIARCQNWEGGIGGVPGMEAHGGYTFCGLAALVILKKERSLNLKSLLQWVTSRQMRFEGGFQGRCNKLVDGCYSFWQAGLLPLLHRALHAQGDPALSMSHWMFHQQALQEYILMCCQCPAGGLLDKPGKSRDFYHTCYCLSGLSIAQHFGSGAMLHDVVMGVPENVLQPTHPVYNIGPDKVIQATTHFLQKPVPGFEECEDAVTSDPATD

Compound	inhibition at 0.1 µM	inhibition at 0.01 µM (test compound 10^−8M)
Cn1cncc1C(OCc1c(-c2cccc(Cl)c2)cc(C#N)c(=O)n1C)c1ccc(Cl)cc1 (stereo not drawn) [Example 43, 5-(3-chlorophenyl)-6-(((4-chlorophenyl)(1-methyl-1H-imidazol-5-yl)methoxy)methyl)-1-methyl-2-oxo-1,2-dihydro-3-pyridinecarbonitrile]	> 81%	
Cn1cncc1C(OCc1ccc(Cl)cc1-c1ccccc1)c1ccc(C#N)cc1 (stereo not drawn) [Example 2, 4-(((5-chloro(1,1′-biphenyl)-2-yl)methoxy)(1-methyl-1H-imidazol-5-yl)methyl)benzonitrile]	> 66%	
COc1cccc(-c2cc(C#N)ccc2OCC(F)(c2ccc(C#N)cc2)c2cncn2C)c1 (stereo not drawn) [Example 58, 6-(2-(4-cyanophenyl)-2-fluoro-2-(1-methyl-1H-imidazol-5-yl)ethoxy)-3′-methoxy-1,1′-biphenyl-3-carbonitrile]		96%

Reference: US7323570B2, “Farnesyltransferase inhibitors” (Abbott Laboratories, priority 2000, dated 2008)
